From patent publication US10294237B2, “Bicyclic heterocyclic amide derivative” (Sumitomo Dainippon Pharma Co., Ltd., priority 2015, dated 2019)
Structures can show the parent of a compound that is named as a salt.

Columns and labels:
HCT-116 cells [1] = experiment: Test for inhibiting sphere-forming ability of cancer cells; format: cell-based; details: HCT-116 spheres, non-adherent, serum-free, 4 days, CellTiter-Glo, read-out: IC50 (Sphere IC50 value; concentration for 50% inhibition of cell proliferation)
Protocol: (§1) The reliable methods established for measuring the self-renewal ability of cells which is one of the CSC's properties include a method for measuring the sphere-forming ability of cancer cells in non-adherent condition in the absence of serum (Cancer Res 65, 5506-5511 (2005)). HCT-116 cells were available from the American Type Culture Collection (ATCC). HCT-116 cells were cultured at 37° C. and 5% CO2 using the McCoy's 5a medium containing 10% fetal bovine serum (FBS) and 1% penicillin/streptomycin. HCT-116 cells were seeded in a 384 Well Black Clear Bottom Ultra-Low Attachment Microplate (Corning Cat. No. 3827) in an amount of 350-800 cells/well using the DMEM/F12 medium containing 2% B27 supplement (GIBCO), 20 ng/mL epidermal growth factor (EGF) (peprotech), 10 ng/mL basic fibroblast growth factor (bFGF) (peprotech), 5 μg/mL insulin (Sigma), and 1% penicillin/streptomycin. The test compounds were added into each well to adjust the final concentration of DMSO to 0.1%, and the cells were cultured for 4 days. The number of viable cells in each well was then measured with CellTiter-Glo® Luminescent Cell Viability Assay (Promega) to calculate the concentration of each test compound for 50% inhibition of cell proliferation (Sphere IC50 value; μmol/L).
The experiment of Test Example 1 was performed for the compounds of each Example. The concentrations of each test compound for 50% inhibition of cell profeliration (Sphere IC50 value; μmol/L) are shown in the following Table.

HCT-116 cells [2] = experiment: Test for inhibiting sphere-forming ability of cancer cells (in the presence of BSA); format: cell-based; details: HCT-116 spheres, non-adherent, 5% BSA, 4 days, CellTiter-Glo, read-out: IC50 (Sphere IC50 value; concentration for 50% inhibition of cell proliferation)
Protocol: as §1, with “HCT-116” for “The reliable methods established for measuring the self-renewal ability of cells which is one of the CSC's properties include a method for measuring the sphere-forming ability of cancer cells in non-adherent condition in the absence of serum (Cancer Res 65, 5506-5511 (2005)). HCT-116”, “(Sigma), 5% bovine serum albumin (BSA),” for “(Sigma),”
The experiment of Test Example 2 was performed for the compounds of each Example. The concentrations of each test compound for 50% inhibition of cell profeliration (Sphere IC50 value; μmol/L) are shown in the following Table.

| IC50 (HCT-116 cells [1]; Homo sapiens, 96 h) [nM] | IC50 (HCT-116 cells [2]; Homo sapiens, HCT-116, 96 h) [nM] | IC50 (HCT-116 cells [1]) [nM] | IC50 (HCT-116 cells [2]) [nM] | SMILES |
| --- | --- | --- | --- | --- |
| – | – | 400 | 610 | O=C(Nc1cn(Cc2ccc(OC(F)(F)F)cc2)cn1)c1ccc2c(c1)CCNC2 [Example 75] |
| – | – | 6810 | 5680 | O=C(Nc1cn(CCCOc2ccccc2)cn1)c1cnc2c(c1)CCNC2 [Example 117] |
| – | – | 620 | 600 | Cc1cccc(Cn2cnc(NC(=O)c3ccc4c(c3)CCNC4)c2)c1 [Example 80] |
| 60 | 60 | – | – | O=C(Nc1cn(Cc2ccc(Cl)c(Cl)c2)cn1)c1ccc2c(c1)CCNC2 [Example 102, N-[1-(3,4-dichlorobenzyl)-1H-imidazol-4-yl]-1,2,3,4-tetrahydroisoquinoline-6-carboxamide] |
| – | – | 610 | 540 | O=C(Nc1cn(Cc2ccc(F)c(F)c2)cn1)c1ccc2c(c1)CCNC2 [Example 73] |
| 620 | 530 | – | – | O=C(Nc1cn(Cc2ccc(C(F)(F)F)o2)cn1)c1ccc2c(c1)CCNC2 [Example 104] |
| 70 | 100 | – | – | O=C(Nc1cn(Cc2ccc(Cl)c(F)c2)cn1)c1ccc2c(c1)CCNC2 [Example 90, N-[1-(4-chloro-3-fluorobenzyl)-1H-imidazol-4-yl]-1,2,3,4-tetrahydroisoquinoline-6-carboxamide] |
| 6630 | – | – | – | CC(=O)N1CCc2cc(C(=O)Nc3cn(Cc4cccc(C(F)(F)F)c4)cn3)ccc2C1 [Example 108, 2-Acetyl-N-{1-[3-(trifluoromethyl)benzyl]-1H-imidazol-4-yl}-1,2,3,4-tetrahydroisoquinoline-6-carboxamide trifluoroacetate] |
| 70 | 80 | – | – | O=C(Nc1cn(Cc2cc(F)cc(Cl)c2)cn1)c1ccc2c(c1)CCNC2 [Example 91, N-[1-(3-chloro-5-fluorobenzyl)-1H-imidazol-4-yl]-1,2,3,4-tetrahydroisoquinoline-6-carboxamide] |
| – | – | – | 6180 | O=C(Nc1cn(CC2CCOCC2)cn1)c1cnc2c(c1)CCNC2 [Example 118] |
| 60 | 60 | – | – | O=C(Nc1cn(Cc2cc(F)cc(C(F)(F)F)c2)cn1)c1ccc2c(c1)CCNC2 [Example 99, N-{1-[3-fluoro-5-(trifluoromethyl)benzyl]-1H-imidazol-4-yl}-1,2,3,4-tetrahydroisoquinoline-6-carboxamide] |
| < 10 | 70 | – | – | O=C(Nc1cn(Cc2ccc(Cl)c(C(F)(F)F)c2)cn1)c1ccc2c(c1)CCNC2 [Example 93, N-{1-[4-chloro-3-(trifluoromethyl)benzyl]-1H-imidazol-4-yl}-1,2,3,4-tetrahydroisoquinoline-6-carboxamide] |
| – | – | 470 | 560 | O=C(Nc1cn(CCC2CCCCC2)cn1)c1ccc2c(c1)CCNC2 [Example 86] |
| 40 | 60 | – | – | O=C(Nc1cn(Cc2cc(Cl)cc(OC(F)(F)F)c2)cn1)c1cnc2c(c1)CCNC2 [Example 70, N-{1-[3-chloro-5-(trifluoromethoxy)benzyl]-1H-imidazol-4-yl}-5,6,7,8-tetrahydro-1,7-naphthyridine-3-carboxamide] |
| 690 | 980 | – | – | O=C(Nc1cn(Cc2cccc(C(F)(F)F)c2)cn1)c1ccc2c(c1)CCC(O)C2 (stereo not drawn) [Example 111, 6-Hydroxy-N-{1-[3-(trifluoromethyl)benzyl]-1H-imidazol-4-yl}-5,6,7,8-tetrahydronaphthalene-2-carboxamide] |
| – | – | 5990 | 1970 | O=C(Nc1cn(CCOc2ccccc2)cn1)c1cnc2c(c1)CCNC2 [Example 116] |
| – | – | 560 | 650 | Cc1ccc(Cn2cnc(NC(=O)c3cnc4c(c3)CCNC4)c2)cc1 [Example 68] |
| – | 6340 | – | – | O=C(Nc1cn(Cc2cccc(O)c2)cn1)c1ccc2c(c1)CCNC2 [Example 107] |
| 70 | 60 | – | – | O=C(Nc1cn(Cc2cc(Cl)cc(Cl)c2)cn1)c1ccc2c(c1)CCNC2 [Example 101, N-[1-(3,5-dichlorobenzyl)-1H-imidazol-4-yl]-1,2,3,4-tetrahydroisoquinoline-6-carboxamide] |
| 7070 | – | – | – | O=C(Nc1cn(Cc2cccc(C(F)(F)F)c2)cn1)c1ccc2c(c1)CCC1(C2)OCCO1 [Example 109, N-{1-[3-(Trifluoromethyl)benzyl]-1H-imidazol-4-yl}-3′,4′-dihydro-1′H-spiro[1,3-dioxolane-2,2′-naphthalene]-6′-carboxamide] |
| – | – | 6780 | – | COc1ccc(Cn2cnc(NC(=O)c3ccc4c(c3)CCNC4)c2)cc1 [Example 84] |
| – | – | – | 8520 | Nc1cccc(Cn2cnc(NC(=O)c3cnc4c(c3)CCNC4)c2)c1 [Example 67] |

More lines, now with the values behind:

| SMILES | IC50 (HCT-116 cells [1]; Homo sapiens, 96 h) [nM] | IC50 (HCT-116 cells [2]; Homo sapiens, HCT-116, 96 h) [nM] | IC50 (HCT-116 cells [1]) [nM] | IC50 (HCT-116 cells [2]) [nM] |
| --- | --- | --- | --- | --- |
| O=C(Nc1cn(Cc2cc(F)cc(F)c2)cn1)c1cnc2c(c1)CCNC2 [Example 47, N-[1-(3,5-difluorobenzyl)-1H-imidazol-4-yl]-5,6,7,8-tetrahydro-1,7-naphthyridine-3-carboxamide] | 80 | 50 | – | – |
| O=C(Nc1cn(Cc2ccccc2F)cn1)c1cnc2c(c1)CCNC2 [Example 46] | – | – | 750 | 440 |
| O=C(Nc1cn(Cc2cccc(C(F)(F)F)c2)cn1)c1ccc2c(c1)CCNC2 [Example 26] | 80 | 100 | – | – |
| O=C(Nc1cn(Cc2ccc(Cl)cc2)cn1)c1cnc2c(c1)CCNC2 [Example 65, N-[1-(4-chlorobenzyl)-1H-imidazol-4-yl]-5,6,7,8-tetrahydro-1,7-naphthyridine-3-carboxamide] | 80 | 380 | – | – |
| O=C(Nc1cn(Cc2cccc(OC(F)(F)F)c2)cn1)c1cnc2c(c1)CCNC2 [Example 49, N-{1-[3-(trifluoromethoxy)benzyl]-1H-imidazol-4-yl}-5,6,7,8-tetrahydro-1,7-naphthyridine-3-carboxamide] | 70 | 70 | – | – |
| Cc1nc(NC(=O)c2ccc3c(c2)CCNC3)cn1Cc1cccc(C(F)(F)F)c1 [Example 22] | 200 | 580 | – | – |
| O=C(Nc1cn(Cc2cc(F)cc(Cl)c2)cn1)c1cnc2c(c1)CCNC2 [Example 52, N-[1-(3-chloro-5-fluorobenzyl)-1H-imidazol-4-yl]-5,6,7,8-tetrahydro-1,7-naphthyridine-3-carboxamide] | 60 | 60 | – | – |
| COc1cccc(Cn2cnc(NC(=O)c3cnc4c(c3)CCNC4)c2)c1 [Example 58] | – | – | 180 | 80 |
| O=C(Nc1cn(Cc2ccccc2C(F)(F)F)cn1)c1cnc2c(c1)CCNC2 [Example 62] | – | – | 710 | 590 |
| O=C(Nc1cn(Cc2ccc(C(F)(F)F)cc2)cn1)c1cnc2c(c1)CCNC2 [Example 64, N-{1-[4-(trifluoromethyl)benzyl]-1H-imidazol-4-yl}-5,6,7,8-tetrahydro-1,7-naphthyridine-3-carboxamide] | 90 | 170 | – | – |
| O=C(/C=C/c1ccc2c(c1)OC(F)(F)O2)Nc1cn(Cc2cccc(Cl)c2)cn1 [Example 40] | 80 | 70 | – | – |
| O=C(Nc1cn(Cc2ccc(F)cc2)cn1)c1cnc2c(c1)CCNC2 [Example 61] | – | – | 370 | 60 |
| O=C1Nc2cc(C(=O)Nc3cn(Cc4cccc(C(F)(F)F)c4)cn3)cnc2CO1 [Example 24] | 520 | 670 | – | – |
| CC1(C)CNCc2ccc(C(=O)Nc3cn(Cc4cccc(C(F)(F)F)c4)cn3)cc21 [Example 32] | 72300 | – | – | – |
| O=C(Nc1cn(Cc2cccc(C(F)(F)F)c2)cn1)c1nc2c(s1)CCNC2 [Example 20] | 65200 | – | – | – |
| CN1CCc2cc(C(=O)Nc3cn(Cc4cccc(C(F)(F)F)c4)cn3)ccc2C1 [Example 30, 2-Methyl-N-{1-[3-(trifluoromethyl)benzyl]-1H-imidazol-4-yl}-1,2,3,4-tetrahydroisoquinoline-6-carboxamide] | 6160 | – | – | – |
| O=C(Nc1cn(Cc2cccc(C(F)(F)F)c2)cn1)c1ccc2c(c1)CNC2 [Example 33] | 1480 | – | – | – |
| O=C(Nc1cn(Cc2cccc(C(F)(F)F)c2)cn1)c1ccc2c(c1)CCOC2 [Example 23] | 4940 | – | – | – |
